Measured values: BindingDB's records for doi:10.1016/j.bioorg.2015.05.008 (Universidade Do Porto, 2015)

Experiments:
Test in all cases: Radioligand Binding Assay
Adenosine receptor A1 = biological target: T1, Adenosine receptor A1 (Homo sapiens, UniProt P30542)
T1 sequence (P30542 whole entry): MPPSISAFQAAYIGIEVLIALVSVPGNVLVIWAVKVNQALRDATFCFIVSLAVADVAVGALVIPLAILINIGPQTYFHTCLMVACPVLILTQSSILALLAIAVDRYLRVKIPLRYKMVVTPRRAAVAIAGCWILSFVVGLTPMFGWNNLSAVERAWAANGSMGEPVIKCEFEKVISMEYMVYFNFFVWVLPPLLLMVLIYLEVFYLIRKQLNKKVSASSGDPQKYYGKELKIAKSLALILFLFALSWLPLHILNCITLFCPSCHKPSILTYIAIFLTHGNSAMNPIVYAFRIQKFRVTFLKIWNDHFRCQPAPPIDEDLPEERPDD
Experimental: (§1) The radioligands used were 1 nM (2R,3R,4S,5R)-2-(2-chloro-6-cyclopentylamino-purin-9-yl)-5-hydroxymethyl-tetrahydro-3,4-diol ([3H]CCPA) for hA1, 10 nM (1-(6-amino-9H-purin-9-yl)-1-deoxy-N-ethyl-β-D-ribofuronamide) ([3H]NECA) for hA2a, and 1 nM 2-(1-hexynyl)-N6-methyladenosine [3H] ([3H]HEMADO) for hA3 receptors.

Adenosine receptor A2a = Adenosine receptor A2a (Homo sapiens, UniProt P29274)
Experimental: as §1

Adenosine receptor A3 = biological target: T2, Adenosine receptor A3 (Homo sapiens, UniProt P0DMS8)
T2 sequence (P0DMS8 whole entry): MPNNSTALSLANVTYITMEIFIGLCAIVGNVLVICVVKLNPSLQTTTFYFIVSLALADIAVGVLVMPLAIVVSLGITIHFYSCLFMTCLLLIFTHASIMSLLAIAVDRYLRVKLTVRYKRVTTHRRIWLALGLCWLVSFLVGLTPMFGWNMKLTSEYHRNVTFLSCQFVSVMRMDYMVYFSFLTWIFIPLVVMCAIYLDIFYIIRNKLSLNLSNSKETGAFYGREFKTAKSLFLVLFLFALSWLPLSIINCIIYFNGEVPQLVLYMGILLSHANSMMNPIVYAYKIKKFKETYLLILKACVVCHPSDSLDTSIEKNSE
Experimental: as §1

Chain of Adenosine receptor A2a (P29274 whole entry): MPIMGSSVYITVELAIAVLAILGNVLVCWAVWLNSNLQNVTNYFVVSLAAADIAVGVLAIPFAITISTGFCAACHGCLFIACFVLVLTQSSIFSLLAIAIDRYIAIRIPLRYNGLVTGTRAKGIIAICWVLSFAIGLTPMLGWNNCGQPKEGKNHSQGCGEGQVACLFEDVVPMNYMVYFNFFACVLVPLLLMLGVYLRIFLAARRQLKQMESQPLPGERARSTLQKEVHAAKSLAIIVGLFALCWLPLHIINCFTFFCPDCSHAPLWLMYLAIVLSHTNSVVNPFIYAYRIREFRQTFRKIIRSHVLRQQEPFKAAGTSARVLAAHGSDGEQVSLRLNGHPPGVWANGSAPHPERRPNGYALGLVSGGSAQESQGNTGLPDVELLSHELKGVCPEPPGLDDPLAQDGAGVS

SMILES	Ki (Adenosine receptor A1)	Ki (Adenosine receptor A2a)	Ki (Adenosine receptor A3)
O=C(Nc1cc2ccccc2oc1=O)c1ccccc1 [N-(2-oxidanylidenechromen-3-yl)benzamide]	> 100 µM	> 100 µM	3.24 µM
C=CC(=O)Nc1c(O)c2ccccc2oc1=O [N-(4-Hydroxycoumarin-3-yl)acrylamide (3)]	> 100 µM	> 100 µM	> 100 µM
O=C(Nc1c(O)c2ccccc2oc1=O)c1ccccc1 [N-(4-hydroxycoumarin-3-yl)benzamide (5)]	> 100 µM	> 100 µM	> 100 µM
C=CC(=O)Nc1cc2ccccc2oc1=O [N-(Coumarin-3-yl)acrylamide (2)]	8.95 µM	12.2 µM	> 100 µM
O=C(Nc1cc2ccccc2oc1=O)c1ccco1 [N-(Coumarin-3-yl)furan-2-carboxamide (8)]	5.18 µM	> 100 µM	9.79 µM
O=C(Nc1cc2ccccc2oc1=O)c1cccnc1 [N-(coumarin-3-yl)nicotinamide (6)]	> 100 µM	> 100 µM	> 100 µM
O=C(Nc1cc2ccccc2oc1=O)c1cccs1 [N-(coumarin-3-yl)thiophene-2-carboxamide (7)]	16.2 µM	> 100 µM	> 60 µM
